In this assay the target is human Nav1.8 (Homo sapiens (Human), UniProt Q9Y5Y9). The assay is described as follows: E-VIPR optical membrane potential assay with electrical stimulation. In kind it is cell-based. Conditions: HEK cells expressing human Nav1.8. From the text: Assays for Detecting and Measuring NaV Inhibition Properties of Compounds E-VIPR Optical Membrane Potential Assay Method with Electrical Stimulation
Sodium channels are voltage-dependent proteins that can be activated by inducing membrane voltage changes by applying electric fields. The electrical stimulation instrument and methods of use are described in Ion Channel Assay Methods PCT/US01/21652, herein incorporated by reference and are referred to as E-VIPR. The instrument comprises a microtiter plate handler, an optical system for exciting the coumarin dye while simultaneously recording the coumarin and oxonol emissions, a waveform generator, a current- or voltage-controlled amplifier, and a device for inserting electrodes in well. Under integrated computer control, this instrument passes user-programmed electrical stimulus protocols to cells within the wells of the microtiter plate.
24 hours before the assay on E-VIPR, HEK cells expressing human Nav1.8 were seeded in 384-well poly-lysine coated plates at 15,000-20,000 cells per well. HEK cells were grown in media (exact composition is specific to each cell type and NaV subtype) supplemented with 10% FBS (Fetal Bovine Serum, qualified; GibcoBRL #16140-071) and 1% Pen-Strep (Penicillin-Streptomycin; GibcoBRL #15140-122). Cells were grown in vented cap flasks, in 90% humidity and 5% CO2.
100 mg/mL Pluronic F-127 (Sigma #P2443), in dry DMSO
Compound Plates: 384-well round bottom plate, e.g. Corning 384-well Polypropylene Round Bottom #3656
Cell Plates: 384-well tissue culture treated plate, e.g. Greiner #781091-1B
Bath1 buffer: Glucose 10 mM (1.8 g/L), Magnesium Chloride (Anhydrous), 1 mM (0.095 g/L), Calcium Chloride, 2 mM (0.222 g/L), HEPES 10 mM (2.38 g/L), Potassium Chloride, 4.5 mM (0.335 g/L), Sodium Chloride 160 mM (9.35 g/L).
Hexyl Dye Solution: Bath1 Buffer+0.5% β-cyclodextrin (make this prior to use, Sigma #C4767), 8 μM CC2-DMPE+2.5 μM DiSBAC6(3). To make the solution added volume of 10% Pluronic F127 stock equal to volumes of CC2-DMPE+DiSBAC6(3). The order of preparation was first mix Pluronic and CC2-DMPE, then added DiSBAC6(3) while vortexing, then added Bath1+β-Cyclodextrin.
1) Pre-spotted compounds (in neat DMSO) into compound plates. Vehicle control (neat DMSO), the positive control (20 mM DMSO stock tetracaine, 125 μM final in assay) and test compounds were added to each well at 160× desired final concentration in neat DMSO. Final compound plate volume was 80 μL (80-fold intermediate dilution from 1 μL DMSO spot; 160-fold final dilution after transfer to cell plate). Final DMSO concentration for all wells in assay was 0.625%.
2) Prepared Hexyl Dye Solution.
3) Prepared cell plates. On the day of the assay, medium was aspirated and cells were washed three times with 100 μL of Bath1 Solution, maintaining 25 μL residual volume in each well.
4) Dispensed 25 μL per well of Hexyl Dye Solution into cell plates. Incubated for 20-35 minutes at room temp or ambient conditions.
5) Dispensed 80 μL per well of Bath1 into compound plates. Acid Yellow-17 (1 mM) was added and Potassium Chloride was altered from 4.5 to 20 mM depending on the NaV subtype and assay sensitivity.
6) Washed cell plates three times with 100 μL per well of Bath1, leaving 25 μL of residual volume. Then transfered 25 uL per well from Compound Plates to Cell Plates. Incubated for 20-35 minutes at room temp/ambient condition.
7) Read Plate on E-VIPR. Used the current-controlled amplifier to deliver stimulation wave pulses for 10 seconds and a scan rate of 200 Hz. A pre-stimulus recording was performed for 0.5 seconds to obtain the un-stimulated intensities baseline. The stimulatory waveform was followed by 0.5 seconds of post-stimulation recording to examine the relaxation to the resting state.
Data was analyzed and reported as normalized ratios of emission intensities measured in the 460 nm and 580 nm channels. The response as a function of time was reported as the ratios obtained using the following formula: […]

Chain of human Nav1.8 (Q9Y5Y9 whole entry): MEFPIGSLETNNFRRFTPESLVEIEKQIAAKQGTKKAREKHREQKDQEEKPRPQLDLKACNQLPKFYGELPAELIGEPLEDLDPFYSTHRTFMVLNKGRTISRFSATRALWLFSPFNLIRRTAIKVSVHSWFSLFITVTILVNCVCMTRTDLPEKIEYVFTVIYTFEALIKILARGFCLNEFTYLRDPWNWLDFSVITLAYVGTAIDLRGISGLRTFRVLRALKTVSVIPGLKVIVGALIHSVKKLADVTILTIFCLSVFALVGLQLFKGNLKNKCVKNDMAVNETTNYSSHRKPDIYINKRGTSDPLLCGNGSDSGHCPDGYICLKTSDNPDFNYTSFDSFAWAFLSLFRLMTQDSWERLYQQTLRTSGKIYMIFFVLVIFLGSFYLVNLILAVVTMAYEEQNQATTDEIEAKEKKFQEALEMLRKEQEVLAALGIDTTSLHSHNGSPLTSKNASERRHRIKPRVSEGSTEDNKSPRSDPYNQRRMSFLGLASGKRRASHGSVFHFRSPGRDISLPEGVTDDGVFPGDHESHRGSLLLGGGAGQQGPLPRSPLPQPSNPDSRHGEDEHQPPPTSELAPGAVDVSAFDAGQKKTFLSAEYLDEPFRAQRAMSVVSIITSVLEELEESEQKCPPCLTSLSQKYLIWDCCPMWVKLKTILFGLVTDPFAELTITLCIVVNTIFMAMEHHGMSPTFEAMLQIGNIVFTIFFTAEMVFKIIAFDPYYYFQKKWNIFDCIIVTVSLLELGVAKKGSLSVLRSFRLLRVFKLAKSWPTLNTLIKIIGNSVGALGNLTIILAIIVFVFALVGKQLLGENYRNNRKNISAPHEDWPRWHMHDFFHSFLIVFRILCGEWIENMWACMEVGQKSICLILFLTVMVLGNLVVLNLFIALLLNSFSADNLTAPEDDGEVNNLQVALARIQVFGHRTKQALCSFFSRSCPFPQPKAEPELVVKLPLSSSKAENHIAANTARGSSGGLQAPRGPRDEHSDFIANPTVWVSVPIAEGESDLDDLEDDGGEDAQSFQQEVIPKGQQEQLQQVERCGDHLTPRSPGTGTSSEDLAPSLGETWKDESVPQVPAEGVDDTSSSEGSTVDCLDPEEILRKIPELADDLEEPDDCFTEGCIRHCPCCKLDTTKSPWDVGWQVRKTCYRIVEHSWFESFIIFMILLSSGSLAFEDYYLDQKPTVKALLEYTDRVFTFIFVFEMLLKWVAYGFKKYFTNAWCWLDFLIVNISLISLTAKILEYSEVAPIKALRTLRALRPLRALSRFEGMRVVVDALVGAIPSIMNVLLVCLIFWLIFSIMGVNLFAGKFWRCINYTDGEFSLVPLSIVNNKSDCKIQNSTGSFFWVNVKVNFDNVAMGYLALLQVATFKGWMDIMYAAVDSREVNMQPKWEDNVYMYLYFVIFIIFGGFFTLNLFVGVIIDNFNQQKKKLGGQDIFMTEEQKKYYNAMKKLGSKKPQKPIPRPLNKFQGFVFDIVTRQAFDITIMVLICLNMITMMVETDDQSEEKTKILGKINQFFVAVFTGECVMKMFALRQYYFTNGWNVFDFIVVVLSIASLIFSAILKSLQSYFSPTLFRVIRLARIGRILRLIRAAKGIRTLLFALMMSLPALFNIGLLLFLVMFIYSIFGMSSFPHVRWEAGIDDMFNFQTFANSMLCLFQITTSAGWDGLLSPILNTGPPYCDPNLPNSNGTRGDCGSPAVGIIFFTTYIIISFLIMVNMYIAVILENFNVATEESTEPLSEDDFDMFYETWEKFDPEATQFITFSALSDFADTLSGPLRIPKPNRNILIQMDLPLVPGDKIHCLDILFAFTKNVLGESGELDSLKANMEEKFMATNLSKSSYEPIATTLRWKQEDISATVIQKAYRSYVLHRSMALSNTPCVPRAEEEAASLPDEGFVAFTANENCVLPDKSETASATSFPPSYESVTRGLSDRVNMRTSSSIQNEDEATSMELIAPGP

For the compound “4-(4,5-dichloro-2-(4-fluoro-2-methoxyphenoxy)benzamido)picolinic acid [Compound 76]”, half-maximal inhibition (IC50) was put at 12 nM.

For `O=C(O)c1ccc(NC(=O)c2ccc(C(F)(F)C(F)(F)F)cc2Oc2ccc(F)cc2Cl)cc1` [Compound 1, 4-(2-(2-chloro-4-fluorophenoxy)-4-(perfluoroethyl)benzamido)benzoic acid], the IC50 was found to be 17 nM.

As to `O=C(O)c1ccc(NC(=O)c2ccc(C(F)(F)C(F)(F)F)cc2Oc2ccc(F)cc2F)cc1` [Compound 2, 4-(2-(2,4-difluorophenoxy)-4-(perfluoroethyl)benzamido)benzoic acid], the IC50 amounted to 32 nM.

Compound `Cc1cc(F)ccc1Oc1cc(C(F)(F)C(F)(F)F)ccc1C(=O)Nc1ccc(C(=O)O)cc1` [Compound 3, 4-(2-(4-fluoro-2-methylphenoxy)-4-(perfluoroethyl)benzamido)benzoic acid] yielded an IC50 of 22 nM.

As for `O=C(O)c1ccc(NC(=O)c2ccc(C(F)(F)F)cc2Oc2ccc(F)cc2Cl)cc1` [Compound 4, 4-(2-(2-chloro-4-fluorophenoxy)-4-(trifluoromethyl)benzamido)benzoic acid], half-maximal inhibition (IC50) required 58 nM.

On to `Cc1cc(F)ccc1Oc1cc(C(F)(F)F)ccc1C(=O)Nc1ccc(C(=O)O)cc1` [Compound 5, 4-(2-(4-fluoro-2-methylphenoxy)-4-(trifluoromethyl)benzamido)benzoic acid], for which the IC50 is 60 nM.

The compound `O=C(O)c1ccc(NC(=O)c2ccc(C(F)(F)F)cc2Oc2ccc(F)cc2F)cc1` [Compound 6, 4-(2-(2,4-difluorophenoxy)-4-(trifluoromethyl)benzamido)benzoic acid] had an IC50 of 145 nM.

As to `O=C(O)c1ccc(NC(=O)c2ccc(C(F)(F)F)cc2Oc2ccc(OC(F)(F)F)cc2)cc1` [Compound 7, 4-(2-(4-(trifluoromethoxy)phenoxy)-4-(trifluoromethyl)benzamido)benzoic acid], the IC50 turned out to be 37 nM.

As to `O=C(O)c1ccc(NC(=O)c2c(Oc3ccc(F)cc3F)cc(C(F)(F)F)cc2C(F)(F)F)cc1` [Compound 8, 4-(2-(2,4-difluorophenoxy)-4,6-bis(trifluoromethyl)benzamido)benzoic acid], half-maximal inhibition (IC50) required 405 nM.

`Cc1cc(F)ccc1Oc1cc(C(F)(F)F)cc(C(F)(F)F)c1C(=O)Nc1ccc(C(=O)O)cc1` [Compound 9, 4-(2-(4-fluoro-2-methylphenoxy)-4,6-bis(trifluoromethyl)benzamido)benzoic acid] displayed a half-maximal inhibitory concentration (IC50) of 130 nM.

`COc1cc(F)ccc1Oc1cc(C(F)(F)F)cc(C(F)(F)F)c1C(=O)Nc1ccc(C(=O)O)cc1` [Compound 10, 4-(2-(4-fluoro-2-methoxyphenoxy)-4,6-bis(trifluoromethyl)benzamido)benzoic acid] registered an IC50 of 37 nM.

Turning to `O=C(O)c1ccc(NC(=O)c2c(Oc3ccc(F)cc3)cc(C(F)(F)F)cc2C(F)(F)F)cc1` [Compound 11, 4-(2-(4-fluorophenoxy)-4,6-bis(trifluoromethyl)benzamido)benzoic acid], the IC50 came to 305 nM.

Turning to `COc1cc(F)ccc1Oc1cc(Cl)c(Cl)cc1C(=O)Nc1ccc(C(=O)O)cc1` [Compound 12, 4-(4,5-dichloro-2-(4-fluoro-2-methoxyphenoxy)benzamido)benzoic acid], the IC50 was 11 nM.

For the compound `O=C(O)c1ccc(NC(=O)c2cc(Cl)c(Cl)cc2Oc2ccc(F)cc2)cc1` [Compound 13, 4-(4,5-dichloro-2-(4-fluorophenoxy)benzamido)benzoic acid], half-maximal inhibition (IC50) was put at 58 nM.

Regarding `Cc1cc(F)ccc1Oc1cc(Cl)c(Cl)cc1C(=O)Nc1ccc(C(=O)O)cc1` [Compound 14, 4-(4,5-dichloro-2-(4-fluoro-2-methylphenoxy)benzamido)benzoic acid], the IC50 amounted to 15 nM.

The compound `O=C(O)c1ccc(NC(=O)c2cc(Cl)c(Cl)cc2Oc2ccccc2)cc1` [Compound 15, 4-(4,5-dichloro-2-phenoxybenzamido)benzoic acid] yielded an IC50 of 290 nM.

Compound `COc1ccc(Oc2cc(Cl)c(Cl)cc2C(=O)Nc2ccc(C(=O)O)cc2)c(F)c1` [Compound 16, 4-(4,5-dichloro-2-(2-fluoro-4-methoxyphenoxy)benzamido)benzoic acid] came in with an IC50 of 115 nM.

Consider `O=C(O)c1ccc(NC(=O)c2cc(Cl)c(Cl)cc2Oc2ccc(OCC(F)(F)F)cc2)cc1` [Compound 17, 4-(4,5-dichloro-2-(4-(2,2,2-trifluoroethoxy)phenoxy)benzamido)benzoic acid], for which the IC50 was 62 nM.

The compound `COc1cc(Cl)ccc1Oc1cc(Cl)c(Cl)cc1C(=O)Nc1ccc(C(=O)O)cc1` [Compound 18, 4-(4,5-dichloro-2-(4-chloro-2-methoxyphenoxy)benzamido)benzoic acid] registered an IC50 of 11 nM.

In turn, `O=C(O)c1ccc(NC(=O)c2cc(Cl)c(Cl)cc2Oc2ccccc2OC(F)F)cc1` [Compound 19, 4-(4,5-dichloro-2-(2-(difluoromethoxy)phenoxy)benzamido)benzoic acid] came in with an IC50 of 66 nM.

As to `Cc1cc(Cl)ccc1Oc1cc(Cl)c(Cl)cc1C(=O)Nc1ccc(C(=O)O)cc1` [Compound 20, 4-(4,5-dichloro-2-(4-chloro-2-methylphenoxy)benzamido)benzoic acid], half-maximal inhibition (IC50) required 24 nM.

Regarding `COc1ccc(Oc2cc(Cl)c(Cl)cc2C(=O)Nc2ccc(C(=O)O)cc2)c(OC)c1` [Compound 21, 4-(4,5-dichloro-2-(2,4-dimethoxyphenoxy)benzamido)benzoic acid], half-maximal inhibition (IC50) required 27 nM.

Regarding `COc1ccc(Oc2cc(Cl)c(Cl)cc2C(=O)Nc2ccc(C(=O)O)cc2)cc1F` [Compound 22, 4-(4,5-dichloro-2-(3-fluoro-4-methoxyphenoxy)benzamido)benzoic acid], the IC50 was 78 nM.

`O=C(O)c1ccc(NC(=O)c2cc(Cl)c(Cl)cc2Oc2ccc(F)cc2Cl)cc1` [Compound 23, 4-(4,5-dichloro-2-(2-chloro-4-fluorophenoxy)benzamido)benzoic acid] gave an IC50 of 33 nM.

The compound `O=C(O)c1ccc(NC(=O)c2cc(Cl)c(Cl)cc2Oc2ccc(F)cc2F)cc1` [Compound 24, 4-(4,5-dichloro-2-(2,4-difluorophenoxy)benzamido)benzoic acid] came in with an IC50 of 53 nM.

In turn, `COc1ccc(Oc2cc(Cl)c(Cl)cc2C(=O)Nc2ccc(C(=O)O)cc2)c(Cl)c1` [Compound 25, 4-(4,5-dichloro-2-(2-chloro-4-methoxyphenoxy)benzamido)benzoic acid] displayed an IC50 of 92 nM.

`O=C(O)c1ccc(NC(=O)c2cc(Cl)c(Cl)cc2Oc2ccc(OC(F)(F)F)cc2)cc1` [Compound 26, 4-(4,5-dichloro-2-(4-(trifluoromethoxy)phenoxy)benzamido)benzoic acid] had an IC50 of 24 nM.

`COc1cc(F)ccc1Oc1cc(C(F)(F)C(F)(F)F)ccc1C(=O)Nc1ccc(C(=O)O)cc1` [Compound 27, 4-(2-(4-fluoro-2-methoxyphenoxy)-4-(perfluoroethyl)benzamido)benzoic acid] yielded an IC50 of 20 nM.

Compound `Cc1cc(F)ccc1Oc1ccc(C(F)(F)F)cc1C(=O)Nc1ccc(C(=O)O)cc1` [Compound 29, 4-(2-(4-fluoro-2-methylphenoxy)-5-(trifluoromethyl)benzamido)benzoic acid] displayed an IC50 of 245 nM.

The compound `O=C(O)c1ccc(NC(=O)c2cc(Cl)c(Cl)cc2Oc2ccc(F)cc2)cn1` [Compound 30, 5-(4,5-dichloro-2-(4-fluorophenoxy)benzamido)picolinic acid] came in with an IC50 of 34 nM.

For the compound `Cc1cc(F)ccc1Oc1cc(Cl)c(Cl)cc1C(=O)Nc1ccc(C(=O)O)nc1` [Compound 32, 5-(4,5-dichloro-2-(4-fluoro-2-methylphenoxy)benzamido)picolinic acid], the IC50 turned out to be 11 nM.

A word on the IC50: it is the point on the concentration scale where inhibition reaches its midpoint. A higher IC50 goes with weaker potency in that assay.

These data come from patent publication US9108903B2, “Amides as modulators of sodium channels” (VERTEX PHARMACEUTICALS INCORPORATED, priority 2013, dated 2015).
